The values below are quoted from earlier work in EP3572069A1, “INCREASING SOLUBILITY AND BIOAVAILABILITY OF ENZALUTAMIDE” (Zentiva K.S., priority 2018, dated 2019).

For data set [1] the following is noted: background statement, no test described.
The conditions of data set [2]: not told.

`CNC(=O)c1ccc(N2C(=S)N(c3ccc(C#N)c(C(F)(F)F)c3)C(=O)C2(C)C)cc1F` [Amorphous form of enzalutamide, 4-(3-(4-cyano-3-(trifluoromethyl)phenyl)-5,5-dimethyl-4-oxo-2-thioxo-1-imidazolidinyl)-2-fluoro-N-methyl-benzamide]: the Solubility entry in data set [1] is reported as “dissolves better”.

Consider `CNC(=O)c1ccc(N2C(=S)N(c3ccc(C#N)c(C(F)(F)F)c3)C(=O)C2(C)C)cc1F` [Crystalline enzalutamide, 4-(3-(4-cyano-3-(trifluoromethyl)phenyl)-5,5-dimethyl-4-oxo-2-thioxo-1-imidazolidinyl)-2-fluoro-N-methyl-benzamide], for which, in data set [1], the Solubility entry is “very poorly soluble”.

Turning to `CNC(=O)c1ccc(N2C(=S)N(c3ccc(C#N)c(C(F)(F)F)c3)C(=O)C2(C)C)cc1F` [Enzalutamide, 4-(3-(4-cyano-3-(trifluoromethyl)phenyl)-5,5-dimethyl-4-oxo-2-thioxo-1-imidazolidinyl)-2-fluoro-N-methyl-benzamide], the Permeability result in data set [2] is “high permeability”.
